Earlier results, collected in US20180092930A1, “METHODS OF DIAGNOSING AND TREATING ABIRATERONE ACETATE- GLUCOCORTICOID -RESISTANT OR -SENSITIVE METASTATIC CASTRATION RESISTANT PROSTATE CANCER” (Janssen Pharmaceutica NV, priority 2016, published 2018).
Where two headings read alike, the source gives them in different places.

Legend:
CRPC = conditions: pooled patients treated with AA or enzalutamide
[1] = system: castration-resistant prostate cancer

Compound	OS (CRPC; ARV7+ at baseline)	OS (CRPC; ARV7- at baseline)	PSA response rate ([1]; ARV7-negative patients)	PSA-PFS, median ([1]; ARV7-negative patients)	clinical or radiographic progression-free survival, median ([1]; ARV7-negative patients)	overall survival, median ([1]; ARV7-negative patients)	PSA response rate ([1]; ARV7-positive patients)	PSA-PFS, median ([1]; ARV7-positive patients)	clinical or radiographic progression-free survival, median ([1]; ARV7-positive patients)	overall survival, median ([1]; ARV7-positive patients)
CNC(=O)c1ccc(N2C(=S)N(c3ccc(C#N)c(C(F)(F)F)c3)C(=O)C2(C)C)cc1F [enzalutamide]	8 months	not reached	–	–	–	–	–	–	–	–
CC(=O)O[C@H]1CC[C@@]2(C)C(=CC[C@@H]3[C@@H]2CC[C@]2(C)C(c4cccnc4)=CC[C@@H]32)C1 [abiraterone acetate]	8 months	not reached	68%	not reached	not reached	not reached	0%	1.3 months	2.3 months	10.6 months
